Consider 1 compound from patent US9856218B2, “Inhibitors of PRMT5 and methods of their use” (Ohio State Innovation Foundation, priority 2013, dated 2018).

Common to all, as to type: cell-based
Experiment [1] relates to AML cell lines and blasts. Put plainly: Colony forming assay. Particulars: 100 nM, versus vehicle treated control cells. Here is the method:
Clonogenic assays were set up by plating 1×10^3 cell/mL in semi-solid methylcellulose medium (MethoCult, Stem Cell Technologies). Colonies were counted after 10-14 days using an inverted microscope. Growth inhibition assays were measured using a colorimetric MTS assay: 5×10^4 cells were plated in 100 μL final volume in a 96-well plate in the presence of different concentrations of C12 for 24, 48 and 72 hours at 37° C. Afterwards, 20 μL of the CellTiter 96W AQueous One Solution Reagent, which contains tetrazolium compound [3-(4,5-[…])-5-(3-carboxymethoxyphenyl)-2-(4-sulfophenyl)-2H-tetrazolium, inner salt; MTS] and an electron coupling reagent (phenazine ethosulfate; PES) (Promega, Madison Wis.), was added to each well. Within 1-4 hours of incubation at 37° C., the optical density at 490 and 690 nm was measured. Cell viability was calculated with respect to the control samples and reference background wavelength at 690 nm. At least three independent experiments were performed. Growth curve assays were done by counting live cells using Trypan blue exclusion and inverted microscope for >12 days after plating the cells in 1×10^5 concentrations.
(§1) PRMT5 inhibition by C12 was also effective in promoting apoptosis and differentiation.
Colonies were counted 10-14 days after plating and each treatment was carried out in triplicates.

The subject of experiment [2] is AML cells (MV4-11 (FLT3-ITD) and Kasumi-1 (KITmut)). Put plainly: Differentiation marker CD11b, flow cytometry. Particulars: MV4-11 and Kasumi-1. Here is the method: Cells (1×10^6) were washed and passed through a […] filter (BD), then re-suspended in 200 μL binding buffer with or without 5 μL AnnexinV (for apoptosis detection) or CD11b (for maturation detection) antibody (BD Biosciences, Billerica, Mass.). After 15 min. of incubation cells were washed with PBS, re-suspended in 500 μL flow buffer and analyzed on a FACSCalibur cytometer (BD Biosciences). For apoptosis detection, 5 μL propidium iodide (PI) (BD Biosciences) was added to cell before running flow cytometry. Sorting for GFP-positive cells was carried out on BD FACS Aria instrument after filtering and washing cells 2× with ice cold PBS supplemented with 2% calf bovine serum and re-suspending in FACS buffer.
as §1
The increase in CD11b expression in AML cells lines followed a dose-dependent manner.
(In general: In flow cytometry, cells or beads pass a laser one at a time.)

Experiment [3] concerns FLT3 RNA and protein in MV4-11, THP-1 cells and FLT3-ITD patient samples. Put plainly: FLT3 RNA (qRT-PCR) and protein (western blotting) after PRMT5 inhibition. The conditions noted are these: MV4-11, THP-1, FLT3-ITD patient samples. As to the method: Whole cell lysates were prepared by suspending cell pellets in RIPA buffer for 20 min (1% NP-40, 0.1% SDS, 150 mM NaCl, 50 mM Tris, pH 8.0), then supplemented with 1× complete EDTA free protease inhibitor (Roche) and 1× PhosStop (Roche). Lysates were separated by 4-20% SDS-PAGE and transferred to PVDF membrane (GE Healthcare, Piscataway, N.J.). Membranes were blocked with 5% milk or BSA in 1×TBS with 0.1% Tween 20 for 1 hour at room temperature with shaking. […]
Total RNA was extracted using TriZol reagent (Invitrogen) and subjected to Reverse Transcription using SuperScript III reagents (Invitrogen). Quantitative Real-Time PCR was performed on resulting cDNA using commercially available TaqMan Gene Expression Assay primers and probes, and the 7900HT Fast Real-Time PCR System (Applied Biosystems). Mature microRNA levels were quantified using reverse transcription product made with TaqMan MicroRNA Reverse Transcription Kit (Life Technologies).
PRMT5 has been reported to interact with, and to be regulated via posttranslational phosphorylation by mutant constitutively active tyrosine kinase; JAK2V617F (Liu, F., et al. (2011) Cancer Cell 19, 283-294). […] To further confirm FLT3 downregulation following PRMT5 knockdown, kinase activity was measured by detecting phosphorylated STAT5 levels. […]
On the technique in general: Real-time PCR tracks product formation cycle by cycle.

Experiment [4] deals with SP1 protein in AML cell lines (FLT3-ITD and FLT3-WT). Put plainly: SP1 protein levels, Western blotting. Here is the method:
Whole cell lysates were prepared by suspending cell pellets in RIPA buffer for 20 min (1% NP-40, 0.1% SDS, 150 mM NaCl, 50 mM Tris, pH 8.0), then supplemented with 1× complete EDTA free protease inhibitor (Roche) and 1× PhosStop (Roche). Lysates were separated by 4-20% SDS-PAGE and transferred to PVDF membrane (GE Healthcare, Piscataway, N.J.). Membranes were blocked with 5% milk or BSA in 1×TBS with 0.1% Tween 20 for 1 hour at room temperature with shaking. Primary antibodies for ACTIN, GAPDH and FLT3 (Santa Cruz Biotechnology, Santa Cruz Calif.), P65 (Cell signaling), PRMT5 and SP1 (Millipore), H4R3, H3R8, H3 and H4 (Abcam), were diluted 1:1000 or 1:2000 in 5% milk or BSA and incubated for 1-2 hr at room temperature. Membranes were washed using 1×TBS-T, incubated with HRP-conjugated secondary antibodies diluted in 1×TBS-T with 5% milk or BSA, washed, and developed using SuperSignal West Dura Chemiluminescent Substrate (Thermo Scientific). […]
A similar trend was documented in the in vivo murine model of PRMT5 overexpression generated by THP-1/PRMT5 engraftment, as a significant increase in SP1 levels was measured when compared to THP-1/EV control mice (FIG. 45). […]
Background: A western blot detects proteins with antibodies after separation by electrophoresis.

Molecules are shown by their SMILES.

For the compound `CCn1c2ccccc2c2cc(CNCc3ccccc3OC)ccc21` [HLCL-61], the colonies formed result in experiment [1] is “Significantly fewer colonies”. Besides, in experiment [2], the “early differentiation marker CD11b” value is “dose-dependent up-regulation”. Also, the “wild-type or mutated FLT3 RNA and protein” value in experiment [3] is listed as “significant downregulation”. Besides, the SP1 protein levels entry in experiment [4] is listed as “significant knockdown of SP1 protein levels”.
